The values below come from US20260216057A1, “PHARMACEUTICAL COMPOSITIONS FOR HERPES VIRUS” (priority 2022, published 2026).

The term EC50 denotes the concentration needed to bring the measured effect to its halfway point.

Data set [1] can be described thus: Example 7: Compound 1 aqueous suspension SC PK study in rat. The following applies: aqueous suspension (Form A), 10 mg/kg. It is filed as in vivo, male Sprague Dawley rats. As to the method: The LC-MS methodology and conditions used to analyse the helicase-primase inhibitor Compound 1 in plasma samples from the sub-cutaneous injection PK studies (Examples 7 and 10-12) are described in Table 3 and Table 4. An aqueous suspension of crystalline Compound 1 (Form A) was prepared in a 0.9% NaCl+0.5% polysorbate 80 vehicle at a concentration of 3.0 mg/mL as described in Example 2. The suspension was then dosed to male SD rats at 10 mg/kg according to the Example 2 animal dosing method.

The nature of data set [2]: Example 12: Compound 1 (Form A) aqueous suspension SC PK study in dog. It is filed as in vivo, male non-naïve Beagle dogs. The following applies: 10 mg/kg, following an initial drug burst. As to the method: An aqueous suspension of Compound 1 free form (Form A) in a 0.9% NaCl+0.5% poloxamer 188 vehicle at a concentration of 5.0 mg/mL was prepared as follows: • 1) Vehicle (0.9% w/w NaCl and 0.5% w/w poloxamer 188) was prepared by dissolving NaCl and poloxamer 188 in water. • 2) Appropriate amount of Compound 1 free form was weighed and added to the vehicle. • 3) The mixture was stirred for 15 minutes, then vortexed for 1 minute and then sonicated for 10 minutes. • 4) The final dosing formulation was a homogenous white cloudy suspension.
Male non-naïve beagles with ~10 kg body weight were used for the dog PK study. The animals had free access to food and water. The prepared suspension was administered via subcutaneous injection to each animal group (n=3) with a dosing volume of 2 mL/kg to achieve a 10 mg/kg dose.
At each time point, approximately 0.5 mL of whole blood was collected into K2EDTA tubes. Blood samples were put on ice and centrifuged at 2000 g for 5 min to obtain plasma samples within 15 minutes. Plasma samples were stored at approximately −70° C. until analyzed by LC-MS.

Another data set is described as follows: Plasma protein binding. It is filed as in vitro ADME. Conditions: read-out: free fraction of the total plasma concentration.
Data set [3] can be described thus: Example 1: pritelivir aqueous suspension SC PK study in rat. It is filed as in vivo, male Sprague Dawley rats. The following applies: aqueous suspension (dihydrate), 33.33 mg/kg and 166.67 mg/kg, both dosing levels. The method, then: The LC-MS methodology and conditions used to analyse pritelivir in plasma samples from the PK studies described in Examples 1 to 5 are provided in Table 1.
An aqueous suspension of crystalline pritelivir free base (dihydrate) in a 0.9% NaCl+0.5% polysorbate 80 vehicle at concentrations of 10.0 mg/mL and 50.0 mg/mL was prepared as follows: • 1) Vehicle (0.9% w/w NaCl and 0.5% w/w polysorbate 80) was prepared by dissolving NaCl and polysorbate 80 in water. • 2) Appropriate amount of crystalline pritelivir free base (dihydrate) was weighed and added to the vehicle. • 3) Mixture was vortexed for 1 minute, stirred for 10 minutes and then sonicated for 15 minutes. • 4) The final dosing formulation was a homogenous white cloudy suspension.
Male Sprague Dawley (SD) rats with ~300 g body weight (ages 6-8 weeks) were used for the pharmacokinetic study. The animals had free access to food and water. The pritelivir suspensions described above were administered via sub-cutaneous injection to each animal group (n=3) with a dosing volume of 3.33 mL/kg to achieve 33.33 mg/kg and 166.67 mg/kg doses.
At each time point, approximately 200 μL whole blood was collected in a K2EDTA tube via the jugular vein. Blood samples were put on ice and centrifuged at 2000 g for 5 min to obtain a plasma sample within 15 minutes. Plasma samples were stored at approximately −70° C. until analyzed by LC-MS.

In the next data set the test system is HSV-2. The following applies: Field et al. (2013); read-out: in-vitro EC50 against HSV-2; cited from earlier work.
The nature of data set [4]: Example 14: pritelivir SC PK study in dog (solution, micro-suspension, nano-suspension). It is filed as in vivo, male non-naïve Beagle dogs. Conditions: 10 mg/kg. The method, then: The LC-MS methodology and conditions used to analyse pritelivir in dog plasma samples from the PK study described in Example 14 are provided in Table 2.
A solution of pritelivir in 90% NMP (Sigma) and 10% Solutol HS15 (BASF) at a concentration of 100 mg/mL was prepared as follows: • 1) Around 460 mg of crystalline pritelivir free base sesquihydrate (based on assay) was weighed and added to ~3.9 mL of NMP. The mixture was stirred for 10 mins. • 2) After the pritelivir had dissolved, Solutol HS15 (−0.4 mL) was added to the solution and mixed for another 2 mins. • 3) The final dosing formulation was a clear solution.
An aqueous micro-suspension of crystalline pritelivir free base (sesquihydrate) in a 2 mg/mL polysorbate 80 (Tween 80) and 5 mg/mL Methocel A4M vehicle at a concentration of 100 mg/mL was prepared as follows: • 1) Crystalline pritelivir free base (sesquihydrate) was jet milled [grinding pressure […]] to obtain microparticles (Dv90<10 um). • 2) Around 460 mg of jet milled material (based on assay) were then dispersed in a 2 mg/mL polysorbate 80 (Tween 80) and 5 mg/ml Methocel A4M solution (−4.4 mL) to obtain a 100 mg/ml suspension. • 3) The mixture was stirred for 10 minutes. • 4) The final dosing formulation was a homogenous white cloudy suspension.
An aqueous nano-suspension of crystalline pritelivir free base (sesquihydrate) in a 10 mg/mL NaCMC, 2 mg/mL polysorbate 80 (Tween 80) and 50 mg/mL mannitol vehicle at a concentration of 100 mg/mL was prepared as follows: • 1) 10 mg/mL crystalline pritelivir free base (sesquihydrate) was dispersed into a solution of 1 mg/mL NaCMC+0.2 mg/mL polysorbate 80 (Tween 80) and 5 mg/mL mannitol. • 2) The suspension was subjected to high pressure homogenizer (around 20 cycles at 600 bar followed with 130 cycles at 900 bar) until particle size was around 1 μm. • 3) After particle size reduction, the suspension was subjected to freeze drying to obtain a freeze-dried powder. • 4) The freeze-dried powder was reconstituted with water to obtain a 100 mg/ml suspension. • 5) The suspension was wet milled (10:1 0.1 mm zirconium oxide milling beads: pritelivir) at 700 rpm for 500 minutes to reduce particle size to nanosized particles (Dv90<500 nm). • 6) This nanosuspension was subjected to freeze drying to obtain a freeze-dried powder. • 7) Appropriate amounts of freeze-dried powder (based on assay) were weighed and added to water to obtain a 100 mg/ml suspension. • 8) The mixture was stirred for 10 minutes. • 9) The final dosing formulation was a homogenous white cloudy suspension.
Male non-naïve beagles were used for the dog PK study. […]
At each time point, approximately 0.5 mL of whole blood was collected into K2EDTA tubes. […] Plasma samples were stored at approximately −70° C. until analyzed by LC-MS.

As for `Cc1nc(N2CCCN(c3ccc(-c4cc(F)ccc4F)cc3)C2=O)sc1S(N)(=O)=O` [Compound 1, 2-(3-(2′,5′-difluoro-[1,1′-biphenyl]-4-yl)-2-oxotetrahydropyrimidin-1(2H)-yl)-4-methylthiazole-5-sulfonamide], in data set [1], the “prolonged exposure out to (length of the study)” value is given as “at least 144 hours”. The “prolonged exposure out to” value in data set [2] is reported as “at least 220 days”.
On to `Cc1nc(N(C)C(=O)Cc2ccc(-c3ccccn3)cc2)sc1S(N)(=O)=O` [pritelivir, N-methyl-N-(4-methyl-5-sulfamoyl-1,3-thiazol-2-yl)-2-[4-(pyridin-2-yl)phenyl]acetamide], for which, in the data set “Plasma protein binding”, the fraction unbound lay in the range of 0.02 to 0.03. Besides, the “prolonged exposure out to (length of the study)” value in data set [3] is listed as “at least 720 hours”. For the same molecule, the EC50 in the data set with HSV-2 is 29 nM. Also, the “plasma exposure after SC administration” value in data set [4] (0.1 mL/kg, all three formulations (solution, microsuspension, nanosuspension; 100 mg/mL)) was “Prolonged exposure was achieved”. Further, the “plasma concentrations, microsuspension compared with nanosuspension” value in data set [4] (early time points (up to 234 hr)) is “higher plasma concentrations of pritelivir were obtained from the microsuspension”. Besides, the “plasma concentration levels of the solution formulation compared with the suspensions” value in data set [4] (solution in 90% NMP/10% Solutol HS15, early time points) is on record as “highest plasma concentration levels at the early time points”. Besides, the “adverse reactions at the injection sites” value in data set [4] (three formulations) is reported as “no adverse reactions were observed”.
